Source: patent publication US12115209B2, “ROMO1-derived antimicrobial peptides including lysine substitution and variants thereof” (KOREA UNIVERSITY RESEARCH AND BUSINESS FOUNDATION, priority 2019, dated 2024)
No end group written: not given here.

Experiments:
Assay type in all cases: cell-based
[1] = system: Staphylococcus aureus (ATCC 29213); test: Minimum bactericidal concentration (MBC) assay; design: MBC Staphylococcus aureus: unit: µg/mL; details: Tables 11-21, no unit printed
Description: (§1) First, each of Pseudomonas aeruginosa (ATCC 27853) and Staphylococcus aureus (ATCC 29213) was cultured in 3% (w/v) TSB (tryptic soy broth) liquid medium at 37° C. and 200 rpm for 4 hours, and then further cultured under the same conditions for 3 hours to a concentration of 5×10^6 CFU/ml. Strain solutions were prepared by diluting each of the further cultured strains with SP (sodium phosphate; 10 mM sodium phosphate, 1% TSB) buffer to a final concentration of 2×10^5 CFU/ml.
(§2) Then, each peptide at varying concentrations (0 μg/ml to 300 μg/ml) was dispensed into each well of a 96-well microplate, and 100 μl (1×10^5 CFU/ml) of each of the prepared strain solutions was added thereto, mixed therewith, and allowed to react with the peptide in an incubator at 37° C. for 1 hour.
(§3) In addition, 30 g/L of TS (tryptic soy) and 15 g/L of agar were dissolved in distilled water and sterilized, and then 25 ml of the solution was poured onto a 100 mm round plate and solidified at room temperature for one day or more, thereby preparing a TS agar plate. 10 μl of each reaction solution of the peptide and the strain was plated on the TS agar plate at a constant size, and incubated in an incubator at 37° C. for 18 hours, and then colony formation on the plate was checked. The minimum bactericidal concentration was defined as the minimum concentration of the peptide at which no colony was formed, and the experimental results are shown in Table 1 below.

[2] = system: Pseudomonas aeruginosa (ATCC 27853); test: Minimum bactericidal concentration (MBC) assay; design: MBC Pseudomonas aeruginosa: unit: µg/mL; details: Tables 11-21, no unit printed
Description: as §1, §2, §3

[3] = system: Methicillin-resistant Staphylococcus aureus (MRSA, ATCC 33591); test: Minimum bactericidal concentration (MBC) assay; design: unit: µg/mL; details: Tables 11-21, no unit printed
Description: as §1, with “2×10^5 CFU/ml. […]” for “2×10^5 CFU/ml.”
as §3, with “checked.” for “checked. The minimum bactericidal concentration was defined as the minimum concentration of the peptide at which no colony was formed, and the experimental results are shown in Table 1 below.”
Specifically, each type of bacteria was cultured in 3% (w/v) TSB (tryptic soy broth) liquid medium at 37° C. and 200 rpm for 4 hours, and then further cultured under the same conditions for 3 hours to a concentration of 5×10^6 CFU/ml. Strain solutions were prepared by diluting each of the further cultured strains with SP buffer to a final concentration of 2×10^5 CFU/ml.
as §2, with “Then, the KU-5878” for “Then, each”
In addition, 10 μl of each reaction solution of the peptide and the strain was plated on the TS agar plate at a constant size, and incubated in an incubator at 37° C. for 18 hours, and then colony formation on the plate was checked.

CRPA = test: Minimum bactericidal concentration (MBC) assay; design: unit: µg/mL; details: Tables 11-21, no unit printed
[4] = system: Pseudomonas aeruginosa, Staphylococcus aureus, CRPA, MRSA; test: Increase in antibacterial activity (MBC) compared with KU-5878; details: mark = antibacterial activity increased compared with KU-5878

Row | Substance | MBC Staphylococcus aureus [1] | MBC Pseudomonas aeruginosa [2] | MBC MRSA [3] | MBC CRPA (CRPA) | Increase in activity [4]
1 | KKMM-KGGKFGTF-AIG-GIR [d 62K 71M 75M] | 4 µg/mL | 3 µg/mL | 3 µg/mL | 4 µg/mL | ◯
2 | KKMM-KGGKFGTF-AIGMGIR [Peptide K4-d62K-d71M] | 12 µg/mL | 12 µg/mL | 12 µg/mL | 12 µg/mL | ◯
3 | KKMM-KGGKFGTFMAIGMGIR [5878-K4-d62K(=d63K)] | 6 µg/mL | 2 µg/mL | 6 µg/mL | 6 µg/mL | ◯
4 | KKMMKK-GKFGTF-AIG-GIR [d 64G 71M 75M] | 3 µg/mL | 2 µg/mL | 3 µg/mL | 3 µg/mL | ◯
5 | KKMMKK-GKFGTF-AIGMGIR [Peptide K4-d64G-d71M] | 15 µg/mL | 15 µg/mL | 18 µg/mL | 18 µg/mL | ◯
6 | KKMMKK-GKFGTFMAIGMGIR [5878-K4-d64G(=d65G)] | 2 µg/mL | 2 µg/mL | 2 µg/mL | 4 µg/mL | ◯
7 | KKMMKKGG-FGTFMAIGMGIR [Peptide 5878-K4-d66K] | 6 µg/mL | 4 µg/mL | 4 µg/mL | 4 µg/mL | ◯
8 | KKMMKKGGK-GTFMAIGMGIR [Peptide 5878-K4-d67F] | 6 µg/mL | 4 µg/mL | 4 µg/mL | 5 µg/mL | ◯
9 | KKMMKKGGKF-TFMAIGMGIR [Peptide 5878-K4-d68G] | 4 µg/mL | 4 µg/mL | 4 µg/mL | 6 µg/mL | ◯
10 | KKMMKKGGKFG-F--IGMGIR [d 69T 71M 72A] | 2 µg/mL | 2 µg/mL | 4 µg/mL | 3 µg/mL | ◯
11 | KKMMKKGGKFG-F-AIG-GIR [d 69T 71M 75M] | 2 µg/mL | 2 µg/mL | 2 µg/mL | 3 µg/mL | ◯
12 | KKMMKKGGKFG-F-AIGMGIR [Peptide K4-d69T-d71M] | 10 µg/mL | 10 µg/mL | 12 µg/mL | 12 µg/mL | ◯
13 | KKMMKKGGKFG-FMAIGMGIR [Peptide 5878-K4-d69T] | 2 µg/mL | 4 µg/mL | 2 µg/mL | 3 µg/mL | ◯
14 | KKMMKKGGKFGGFMAIGMGIR [Peptide K4-T69G] | 2 | 2 | 3 | 2 | ◯
15 | KKMMKKGGKFGTF--IG-GIR [d 71M 72A 75M] | 3 µg/mL | 2 µg/mL | 3 µg/mL | 2 µg/mL | ◯
16 | KKMMKKGGKFGTF--IGMGIR [Peptide K4-d71M-d72A] | 20 µg/mL | 20 µg/mL | 20 µg/mL | 20 µg/mL | ◯
17 | KKMMKKGGKFGTF-AIG-GIR [Peptide K4-d71M-d75M] | 3 µg/mL | 4 µg/mL | 5 µg/mL | 4 µg/mL | ◯

Row | Substance | MBC Staphylococcus aureus [1] | MBC Pseudomonas aeruginosa [2] | MBC MRSA [3] | MBC CRPA (CRPA) | Increase in activity [4]
18 | KKMMKKGGKFGTF-AIGMGIR [Peptide 5878-K4-d71M] | 4 µg/mL | 2 µg/mL | 4 µg/mL | 6 µg/mL | ◯
19 | KKMMKKGGKFGTFM-IGMGIR [Peptide 5878-K4-d72A] | 2 µg/mL | 2 µg/mL | 3 µg/mL | 4 µg/mL | ◯
20 | KKMMKKGGKFGTFMAI-MGIR [Peptide 5878-K4-d74G] | 2 µg/mL | 2 µg/mL | 3 µg/mL | 4 µg/mL | ◯
21 | KKMMKKGGKFGTFMAIG-GIR [Peptide 5878-K4-d75M] | 2 µg/mL | 2 µg/mL | 2 µg/mL | 4 µg/mL | ◯
22 | KKMMKKGGKFGTFMAIGM-IR [Peptide 5878-K4-d76G] | 4 µg/mL | 4 µg/mL | 4 µg/mL | 4 µg/mL | ◯
23 | KKMMKKGGKFGTFMAIGMG-R [Peptide 5878-K4-d77I] | 7 µg/mL | 4 µg/mL | 4 µg/mL | 6 µg/mL | ◯
24 | KKMMKKGGKFGTFMAIGMGI- [Peptide 5878-K4-78R] | 10 µg/mL | 4 µg/mL | 4 µg/mL | 8 µg/mL | ◯
25 | KKMMKKGGTFGTFMAIGMGIR [KU-5878-K3 (T59K, Q62K, S63K)] | 4 µg/mL | 4 µg/mL | 5 µg/mL | 4 µg/mL | ◯
26 | KKMMKSGGTFGTFMAIGMGIR [KU-5878-K2(T59K, Q62K)] | 8 µg/mL | 8 µg/mL | 8 µg/mL | 6 µg/mL | ◯
27 | KKMMQSGGTFGTFMAIGMGIR [KU-5878-T59K] | 40 µg/mL | 50 µg/mL | 50 µg/mL | 50 µg/mL | ◯
28 | KT-MQSGGTFGTFMAIGMGIR [Peptide 5878-d60M] | 90 µg/mL | 90 µg/mL | 100 µg/mL | 90 µg/mL | 0
29 | KTMM-SGGTFGTFMAIGMGIR [Peptide 5878-4620] | 90 µg/mL | 100 µg/mL | 100 µg/mL | 100 µg/mL | 0
30 | KTMMQS-GTFGTFMAIGMGIR [Peptide 5878-d64G] | 100 µg/mL | 100 µg/mL | 100 µg/mL | 110 µg/mL | 0
31 | KTMMQSGG-FGTFMAIGMGIR [Peptide 5878-d66T] | 90 µg/mL | 90 µg/mL | 90 µg/mL | 100 µg/mL | 0
32 | KTMMQSGGTF-TFMAIGMGIR [Peptide 5878-d68G] | 20 µg/mL | 25 µg/mL | 25 µg/mL | 18 µg/mL | 0
33 | KTMMQSGGTFGTFMAI-MGIR [Peptide 5878-d74G] | 25 µg/mL | 20 µg/mL | 25 µg/mL | 30 µg/mL | 0
34 | KTMMQSGGTFGTFMAIG-GIR [Peptide 5878-d75M] | 100 µg/mL | 100 µg/mL | 110 µg/mL | 100 µg/mL | 0
